This is an account of results in PMC9503112, “Synthesis, Molecular Docking, In Vitro and In Vivo Studies of Novel Dimorpholinoquinazoline-Based Potential Inhibitors of PI3K/Akt/mTOR Pathway” (International Journal of Molecular Sciences, 2022).

The subject of one test is MDA-MB-231. Description: Antiproliferative activity, MTT assay. It is filed as cell-based, human. As to the method:
Human breast cancer MCF7, MDA-MB-231, SkBr-3 (purchased from the ATCC collection), human keratinocytes HaCaT, murine fibroblasts L929 and macrophages J774 cells (Collection of Shemyakin-Ovchinnikov Institute of Bioorganic Chemistry RAS) were cultured in standard DMEM or RPMI-1640 medium (ThermoScientific, Waltham, MA, USA) supplemented with 10% fetal bovine serum (FBS, Cytiva, Marlborough, MA, USA) at 37 °C, 5 % CO2 and 80–85% humidity (NuAir CO2 incubator). The cell growth was evaluated by MTT (3-[4,5-dimethylthiazol-2-yl]-2,5-diphenyltetrazolium bromide) test. Cells were seeded at a density of 5 × 10^3 cells per well in 96-well flat-bottomed plates (TPP). The compounds were dissolved in DMSO (AppliChem) to 10 mM before the experiments, and then the resulting solutions were diluted by the medium to the required concentrations. Solutions of the tested compounds with different concentrations in 100 μL of the medium were added and the cells were grown for 72 h. MTT (10 μL/well, 5 mg/mL) was added for the final 3 h. The formazan purple crystals were dissolved in DMSO (100 μL per well). The absorbance of solutions was measured at 540 nm with a MultiScan reader (ThermoFisher). Results were analyzed by Excel package (Microsoft). The inhibition of proliferation (inhibitory index) was calculated as [1–(ODexperiment/ODcontrol)], where OD was MTT optical density. IC50 (Table 1) was determined as the concentration giving 50% of inhibition in the comparison with it […].

A further test deals with MCF7 cells. Briefly: MCF7 proliferation with 7c in combination with metformin. In kind it is cell-based, human. The following applies: 7c combined with metformin; printed as up to 4 nM. From the text:
Hyperglycemia is one of the most frequent side effects of pan- and isoform-selective PI3K inhibitors. Drug-induced inhibition of PI3K reduces glucose uptake that stimulates insulin secretion. Long-term therapy with PI3K inhibitors can cause insulin resistance. […] We have previously analyzed the antiproliferative potency of metformin (MF) against MCF7 breast cancer cells. Metformin induced a partial restoration of the cancer cell sensitivity to hormonal and target drugs. MF caused 50% suppression of MCF7 cell growth at a concentration of 5.8 mM [54]. Based on this fact, MF at the concentrations that had no significant antiproliferative effect was used in the combination with the lead compound. […]
Human breast cancer MCF7, MDA-MB-231, SkBr-3 (purchased from the ATCC collection), human keratinocytes HaCaT, murine fibroblasts L929 and macrophages J774 cells (Collection of Shemyakin-Ovchinnikov Institute of Bioorganic Chemistry RAS) were cultured in standard DMEM or RPMI-1640 medium (ThermoScientific, Waltham, MA, USA) supplemented with 10% fetal bovine serum (FBS, Cytiva, Marlborough, MA, USA) at 37 °C, 5 % CO2 and 80–85% humidity (NuAir CO2 incubator). The cell growth was evaluated by MTT (3-[4,5-dimethylthiazol-2-yl]-2,5-diphenyltetrazolium bromide) test. […] The absorbance of solutions was measured at 540 nm with a MultiScan reader (ThermoFisher). […]

Test [1] concerns PI3K/Akt/mTOR signaling pathway in MCF7 cells. Briefly: Immunoblotting of PI3K/Akt/mTOR phosphorylation. It is filed as cell-based, human. The method, then: MCF7 cells were seeded onto 100 mm dishes (Corning) and cultivated for 24 h. Compound 7c was added at different concentrations while the reference compound wortmannin (Selleckchem, Houston, TX, USA) was used at 500 nM. The cells were harvested after 72 h of growth with the compounds. To prepare cell extracts, MCF7 cells were twice washed in phosphate buffer and incubated for 10 min on ice in the modified lysis buffer containing 50 mM Tris-HCl, pH 7.5, 0.5% Igepal CA-630, 150 mM NaCl, 1 mM EDTA, 1 mM DTT, 1 mM PMSF, 0.1 mM sodium orthovanadate and aprotinin, leupeptin, pepstatin (1 µg/mL each). The protein content was determined by the Bradford method. Cell lysates were separated in 10% SDS-PAGE under reducing conditions, transferred to a nitrocellulose membrane (GE HealthCare, Chicago, IL, USA), and processed according to a standard protocol. To prevent nonspecific absorption, the membranes were treated with 5% nonfat milk solution in TBS buffer (20 mM Tris, 500 mM NaCl, pH 7.5) with 0.1% Tween-20 and then incubated with primary antibodies (Cell Signaling Technology, Danvers, MA, USA) overnight at 4 °C. […] Signals were detected using the ECL reagent using the ImageQuant LAS4000 system (GE HealthCare, Chicago, IL, USA).
The signals of phospho-proteins to total ones were calculated using the ImageJ program from inverted images of the bands.
Background: In western blotting, separated proteins are transferred to a membrane and probed.

For test [2], the system named is colorectal murine tumor Colon26. Description: In vivo tumor growth. Further details: species or system BALB/c mice. As to the method:
Murine colorectal CT26 (ATCC, CRL-2639) adenocarcinoma tumor cell line was used in the study. Cells were grown in RPMI-1640 supplemented with 10% fetal calf serum (FCS) and pen-strep-glut (all from PanEco, Moscow, Russian Federation). Cells were passaged by trypsinization using Trypsin/EDTA solution (PanEco, Moscow, Russian Federation) twice a week. Cell authentication was not performed by the authors.
Six- to eight-week-old female BALB/c mice were obtained from the Pushchino branch of Shemyakin-Ovchinnikov Institute of Bioorganic Chemistry RAS. All studies were conducted in an AAALAC accredited facility in compliance with the PHS Guidelines for the Care and Use of Animals in Research, protocol #325 from 24.05.2021
Colon-26 cells (10^5) were subcutaneously (s.c.) injected into the depilated flanks of 6-week-old female BALB/c mice. Mice (n = 20) were divided in three groups: control mice (n = 8) were injected with vehicle only; mice from group 1 (n = 6) and 2 (n = 6) were treated with 50 µL of 1 mM 7c injected s.c. near the tumors. […] The perpendicular diameter of each tumor was measured twice a week, and tumor volume was calculated using the following formula: tumor volume (mm^3) = a × b^2 × 0.5, where a represents the longest diameter, b represents the shortest diameter, and 0.5 is a constant used to calculate the volume of an ellipsoid. […]

One may read the IC50 as the concentration needed to halve the response being measured. Read a low IC50 as greater potency.

“And” between values parts separate entries of the source, which are not always exact repeats. Identical values can stand only once. “Also recorded” adds a separate entry of the source.

`O=C(NCCc1cccnc1)Nc1ccc(-c2ccc3c(N4CCOCC4)nc(N4CCOCC4)nc3c2)cc1` [Compound 7c, 1-(4-(2,4-Dimorpholinoquinazolin-7-yl)phenyl)-3-(2-(pyridin-3-yl)ethyl)urea] returned an IC50 in the test with MDA-MB-231 (Homo sapiens, MDA-MB-231, MTT, 72 h, standard deviations within 50%) of 1000 nM. Also, the “Toxicity for MDA-MB-231 (wild type PI3K) lower than for MCF7 (mutant PI3K)” value in the test on MDA-MB-231 (MDA-MB-231 versus MCF7) was 5 times. Besides, the “Antiproliferative activity in combination with metformin” value in the test on MCF7 cells is listed as “up to 4 nM”. Moreover, in test [1], the “Concentration inhibiting phosphorylation of Akt, mTOR, S6K (PI3K/Akt/mTOR proteins)” value was 125 to 250 nM and 250 to 500 nM. In test [2] (50 µL of 1 mM 7c s.c. around tumor, from 400–500 mm^3, three injections), the “Effect on tumor growth, late treatment of large tumors (group 2)” value is given as “less evident but still significant; also recorded: tumor destruction”. The “Effect on tumor growth, early treatment (group 1)” value in test [2] (50 µL of 1 mM 7c s.c. near tumor, once in 3 days, from 2–8 mm^3, post three injections, p < 0.05) is listed as “significant”.
